# Results taken from patent publication US20240148757A1, “USE OF DIHYDROOROTATE DEHYDROGENASE (DHODH) INHIBITORS TO TARGET FERROPTOSIS IN CANCER THERAPY” (BOARD OF REGENTS, THE UNIVERSITY OF TEXAS SYSTEM, priority 2021, published 2024).
# Tests used:
# GPX4-knockdown tumors = assay: GPX4-knockdown HT-1080 xenograft model; type: in vivo, athymic nude mice; settings: liproxstatin-1 10 mg/kg intraperitoneally daily
# Procedure: (§1) Fresh tumor tissues were fixed in 10% neutral buffered formalin overnight, washed once with PBS, and stored in 70% ethanol at 4° C. The tissues were dehydrated and embedded in paraffin by the Research Histology Core Laboratory (MD Anderson Cancer Center) according to standard protocols. Embedded tissues were sectioned at a thickness of 5 μm for H&E or immunohistochemistry (IHC) analysis. IHC analysis was performed as previously described (Gan, B., et al., Cancer Cell 18, 472-484 (2010); Gan, B., et al., J Cell Biol 175, 121-133 (2006)). Briefly, the primary antibodies, including ki-67 (1:500, 9027s, Cell Signaling Technology), cleaved-caspase 3 (1:500, 9661s, Cell Signaling Technology), or 4-HNE (1:400, ab46545, Abcam) were incubated overnight at 4° C. Staining was performed using the Vectastain elite ABC kit and DAB peroxidase substrate kit (Vector laboratories). Images were randomly taken from the […] (five images per tumor) at ×200 magnification using an Olympus BX43 microscope. All the xenograft experiments were performed in accordance with a protocol approved by the Institutional Animal Care and Use Committee and Institutional Review Board at The University of Texas MD Anderson Cancer Center. The study is compliant with all relevant ethical regulations regarding animal research. Female 4- to 6-week-old athymic nude mice (Foxn1^nu/Foxn1^nu) were purchased from the Experimental Radiation Oncology Breeding Core Facility at MD Anderson Cancer Center and housed in the Animal Care Facility at the Department of Veterinary Medicine and Surgery at MD Anderson. Cancer cell lines were suspended and counted in cold phosphate-buffered saline (PBS), and 5×10^6 HT-1080 or 1×10^7 NCI-H226 cells were injected into mice subcutaneously. When the tumor reached 50-100 mm^3, the mice were assigned randomly into different treatment groups. Brequinar or sulfasalazine was dissolved in dimethyl sulfoxide (DMSO) and diluted in PBS. Brequinar was intraperitoneally injected into mice at a dose of 30 mg/kg every three days. Sulfasalazine was intraperitoneally injected daily at a dose of 100 mg/kg. Liproxstatin-1 diluted in PBS was intraperitoneally injected daily at a dose of 10 mg/kg. The daily injection of brequinar, sulfasalazine, or liproxstatin-1 was continued until the endpoint as indicated in the corresponding figures. The tumor volume was measured every 3 days until the endpoint and calculated according to the equation volume=length×width^2×½.
# HT-1080 xenograft tumors = assay: HT-1080 cell line-derived xenograft model; type: in vivo, athymic nude mice; settings: liproxstatin-1 10 mg/kg intraperitoneally daily
# Procedure: as §1
smiles,measurement,setting,value
Clc1cccc(CN=C2Nc3ccccc3NC23CCNCC3)c1 [liproxstatin-1],restoration of tumor growth under brequinar treatment,GPX4-knockdown tumors,largely restored the growth
same,restoration of tumor growth suppressed by brequinar and sulfasalazine,HT-1080 xenograft tumors,largely restored
